Reference: patent US10745355B2, “Anti-cancer compounds” (THE UNIVERSITY OF SYDNEY, priority 2015, dated 2020)

Columns and labels:
BRK = BRK (Homo sapiens, UniProt Q13882); test: Kinase profiling (ProQinase 33PanQinase Activity Assay), BRK; assay type: biochemical; conditions: read-out: residual activity, BRK
Procedure: (§1) The kinase profiling of compound 1-08 at 10 and 50 μM was performed by ProQinase GmbH (Freiburg, Germany). A radiometric protein kinase assay (^33PanQinase® Activity Assay) and the non-radiometric ADP-Glo™ Assay (Promega, Madison, Wis., USA) were used for measuring kinase activity of 387 protein kinases and 13 lipid kinases, respectively. The results are shown in Table 3 (only the top 10 kinases are listed, and the selectivity score describes the portion of kinases inhibited more than 50% in relation to all tested kinases).

EPHB1 = molecular target: T1, EPHB1 (Homo sapiens, UniProt P54762); test: Kinase profiling (ProQinase 33PanQinase Activity Assay), EPHB1; assay type: biochemical; conditions: read-out: residual activity, EPHB1
T1 sequence (P54762 18-984): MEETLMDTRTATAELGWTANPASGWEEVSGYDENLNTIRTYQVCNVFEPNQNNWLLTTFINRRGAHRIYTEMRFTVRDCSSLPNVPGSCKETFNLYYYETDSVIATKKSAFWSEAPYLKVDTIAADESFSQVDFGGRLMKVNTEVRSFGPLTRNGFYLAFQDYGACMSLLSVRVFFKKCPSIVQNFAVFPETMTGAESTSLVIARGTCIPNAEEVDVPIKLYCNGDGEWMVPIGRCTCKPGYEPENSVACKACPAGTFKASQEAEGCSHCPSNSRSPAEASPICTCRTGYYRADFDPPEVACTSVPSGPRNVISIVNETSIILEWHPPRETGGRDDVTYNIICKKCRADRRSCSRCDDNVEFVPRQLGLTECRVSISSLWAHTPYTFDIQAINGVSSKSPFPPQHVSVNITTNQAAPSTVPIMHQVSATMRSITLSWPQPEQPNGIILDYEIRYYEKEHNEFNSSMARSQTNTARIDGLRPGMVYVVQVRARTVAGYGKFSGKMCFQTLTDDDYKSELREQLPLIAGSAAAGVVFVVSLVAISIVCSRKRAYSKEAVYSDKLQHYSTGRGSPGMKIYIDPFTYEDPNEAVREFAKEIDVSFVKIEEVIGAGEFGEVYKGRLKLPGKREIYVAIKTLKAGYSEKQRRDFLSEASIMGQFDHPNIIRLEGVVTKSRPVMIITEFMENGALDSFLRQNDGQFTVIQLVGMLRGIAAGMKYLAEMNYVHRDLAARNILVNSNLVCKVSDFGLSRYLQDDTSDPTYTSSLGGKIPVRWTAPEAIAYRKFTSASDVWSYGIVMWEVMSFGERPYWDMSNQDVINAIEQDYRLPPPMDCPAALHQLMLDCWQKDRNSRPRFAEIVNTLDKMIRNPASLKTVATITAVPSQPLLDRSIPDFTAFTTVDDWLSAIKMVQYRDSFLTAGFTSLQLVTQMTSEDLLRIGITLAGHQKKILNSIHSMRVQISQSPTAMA
Procedure: as §1

ALK = ALK (Homo sapiens, UniProt Q9UM73); test: Kinase profiling (ProQinase 33PanQinase Activity Assay), ALK; assay type: biochemical; conditions: read-out: residual activity, ALK
Chain of ALK (Q9UM73 19-1620): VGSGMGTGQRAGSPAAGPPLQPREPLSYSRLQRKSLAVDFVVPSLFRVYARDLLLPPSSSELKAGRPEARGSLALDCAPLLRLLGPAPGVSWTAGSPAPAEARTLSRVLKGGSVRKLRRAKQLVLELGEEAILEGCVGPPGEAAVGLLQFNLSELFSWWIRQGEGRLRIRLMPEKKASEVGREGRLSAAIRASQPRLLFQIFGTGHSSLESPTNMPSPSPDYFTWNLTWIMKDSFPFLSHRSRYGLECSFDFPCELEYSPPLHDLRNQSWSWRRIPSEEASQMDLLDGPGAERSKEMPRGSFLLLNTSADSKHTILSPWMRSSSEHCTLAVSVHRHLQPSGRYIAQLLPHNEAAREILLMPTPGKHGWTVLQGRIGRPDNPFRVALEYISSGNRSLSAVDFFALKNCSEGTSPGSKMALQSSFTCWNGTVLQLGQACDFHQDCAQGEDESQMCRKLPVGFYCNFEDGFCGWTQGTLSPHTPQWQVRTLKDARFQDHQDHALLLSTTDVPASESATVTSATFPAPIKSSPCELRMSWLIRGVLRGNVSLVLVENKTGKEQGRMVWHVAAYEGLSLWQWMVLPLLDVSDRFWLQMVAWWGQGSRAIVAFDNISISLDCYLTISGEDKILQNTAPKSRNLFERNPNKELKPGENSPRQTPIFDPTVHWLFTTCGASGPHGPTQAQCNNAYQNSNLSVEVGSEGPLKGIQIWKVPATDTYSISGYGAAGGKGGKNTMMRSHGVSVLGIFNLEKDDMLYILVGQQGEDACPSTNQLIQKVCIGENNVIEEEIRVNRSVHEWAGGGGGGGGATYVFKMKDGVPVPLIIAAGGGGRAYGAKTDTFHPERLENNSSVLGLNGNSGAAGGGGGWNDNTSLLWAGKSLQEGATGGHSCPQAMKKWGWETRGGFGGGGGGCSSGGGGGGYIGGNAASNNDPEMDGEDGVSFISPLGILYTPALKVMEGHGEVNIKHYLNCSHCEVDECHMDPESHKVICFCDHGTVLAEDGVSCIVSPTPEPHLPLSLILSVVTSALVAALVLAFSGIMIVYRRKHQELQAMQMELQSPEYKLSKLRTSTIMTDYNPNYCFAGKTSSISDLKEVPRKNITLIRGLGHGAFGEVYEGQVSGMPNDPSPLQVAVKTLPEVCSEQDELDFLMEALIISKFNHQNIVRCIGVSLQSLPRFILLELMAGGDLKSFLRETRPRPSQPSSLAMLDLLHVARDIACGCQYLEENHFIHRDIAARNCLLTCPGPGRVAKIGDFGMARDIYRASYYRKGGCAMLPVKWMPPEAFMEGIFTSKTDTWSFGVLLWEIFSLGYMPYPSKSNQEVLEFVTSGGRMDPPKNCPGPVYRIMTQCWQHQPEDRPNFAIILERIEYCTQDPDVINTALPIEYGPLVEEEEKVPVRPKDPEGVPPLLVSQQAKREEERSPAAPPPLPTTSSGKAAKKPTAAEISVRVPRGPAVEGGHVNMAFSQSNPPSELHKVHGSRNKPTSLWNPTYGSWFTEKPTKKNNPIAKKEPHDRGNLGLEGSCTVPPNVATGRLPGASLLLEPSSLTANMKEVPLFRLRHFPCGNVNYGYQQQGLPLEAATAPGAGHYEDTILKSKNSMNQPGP
Procedure: as §1

U251 = test: Alamar blue cell viability assay, U251 cells; assay type: cell-based; conditions: Homo sapiens, U-251; 72 hours of treatment; mean±SEM, three independent experiments
Procedure: U87 and U251 cell lines were obtained from the European Collection of Cell Cultures (ECACC) through CellBank Australia. U87-EGFRvIII cell line was obtained from their lab of origin (Nishikawa et al., 1994, Proc Natl Acad Sci USA 91: 7727-7731) and tested for EGFR amplification and mutation by immunoblotting and flow cytometry. Cells were cultured in DMEM medium (Invitrogen by Life Technologies, Carlsbad, Calif., USA) supplemented with 10% FBS (Sigma-Aldrich) at 37° C. and 5% CO2. Primary gliomaspheres (RN1, classical; WK1, mesenchymal) were derived from glioblastoma specimens (Day et al., 2013, Cancers 5: 357-371; Day et al., 2013, Cancer Cell 23: 238-248), maintained in StemPro NSC serum-free media supplemented with EGF and FGF (all Life Technologies), and grown on matrigel-coated flasks (Pollard et al., 2009, Cell Stem Cell 4: 568-580).
Cell viability was determined using Alamar blue assay after 72 hours of treatment (Table 2). EC50 values were calculated using non-linear regression on Graph Pad Prism version 5. c Log P values calculated using ChemBioDraw Software. Results are mean±SEM from three independent experiments performed in triplicates.

[1] = molecular target: T2, (Homo sapiens, UniProt P43403); test: Kinase profiling (ProQinase 33PanQinase Activity Assay), ZAP90; assay type: biochemical; conditions: read-out: residual activity, ZAP90
T2 sequence (P43403 1-619): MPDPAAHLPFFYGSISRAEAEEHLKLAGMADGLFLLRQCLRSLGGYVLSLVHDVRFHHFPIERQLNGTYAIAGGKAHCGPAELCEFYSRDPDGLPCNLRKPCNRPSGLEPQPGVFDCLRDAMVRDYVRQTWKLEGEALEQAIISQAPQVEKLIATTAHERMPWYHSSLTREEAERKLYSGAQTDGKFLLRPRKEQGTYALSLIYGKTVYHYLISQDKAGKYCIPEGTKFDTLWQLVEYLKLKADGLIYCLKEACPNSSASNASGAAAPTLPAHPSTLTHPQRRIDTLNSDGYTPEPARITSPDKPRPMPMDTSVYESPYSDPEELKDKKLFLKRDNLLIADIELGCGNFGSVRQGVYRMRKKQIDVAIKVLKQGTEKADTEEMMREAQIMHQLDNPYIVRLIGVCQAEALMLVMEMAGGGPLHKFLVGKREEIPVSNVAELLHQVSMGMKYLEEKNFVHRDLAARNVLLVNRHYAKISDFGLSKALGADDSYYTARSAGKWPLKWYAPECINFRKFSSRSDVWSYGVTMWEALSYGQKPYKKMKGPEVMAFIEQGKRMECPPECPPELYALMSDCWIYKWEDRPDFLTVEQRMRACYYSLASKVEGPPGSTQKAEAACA
Procedure: as §1

Chain of BRK (Q13882 whole entry): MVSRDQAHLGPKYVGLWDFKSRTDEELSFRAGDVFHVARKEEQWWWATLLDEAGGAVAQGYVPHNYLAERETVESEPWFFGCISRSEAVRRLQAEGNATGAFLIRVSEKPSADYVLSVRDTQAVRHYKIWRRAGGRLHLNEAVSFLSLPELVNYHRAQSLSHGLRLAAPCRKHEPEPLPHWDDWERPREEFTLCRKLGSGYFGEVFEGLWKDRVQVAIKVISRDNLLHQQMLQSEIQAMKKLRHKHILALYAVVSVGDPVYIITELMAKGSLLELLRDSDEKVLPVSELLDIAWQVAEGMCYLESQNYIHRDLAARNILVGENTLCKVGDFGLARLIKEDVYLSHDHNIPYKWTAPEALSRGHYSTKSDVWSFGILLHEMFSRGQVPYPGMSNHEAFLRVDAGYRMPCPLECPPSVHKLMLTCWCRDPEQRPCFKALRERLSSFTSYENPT

- remaining activity at 10 µM (BRK; 10 μM compound): 74%
- remaining activity at 50 µM (BRK; 50 μM compound): 29%
- remaining activity at 10 µM (EPHB1; 10 μM compound): 57%
- remaining activity at 50 µM (EPHB1; 50 μM compound): 20%
- remaining activity at 10 µM (ALK; 10 μM compound): 76%
- remaining activity at 50 µM (ALK; 50 μM compound): 21%
- EC50 (U251): 980 ± 200 nM
- remaining activity at 10 µM ([1]; 10 μM compound): 60%
- remaining activity at 50 µM ([1]; 50 μM compound): 14%
SMILES: O=C(CCCc1ccc(-c2cnc3ccccc3c2)cc1)Nc1ccc(O)cc1 [Compound 1-08, N-(4-hydroxyphenyl)-4-(4-(quinolin-3-yl)phenyl)butanamide]
